Assay results reported in the supplement of paper PMC11208160.

Assay: recombinant barcode read abundance after kanamycin selection (control-corrected) (log10(CPM+1)); higher = more efficient recombination; sequences stand for … in AGTGCAGAGAAAATCGGCCAGTTTTCTCTGCCTGCAGTCCGCATGCCGT…AGATTTATGCAGCGGACTGCCTTTCTCCCAAAGTGATAAACCGGACAGTATCATGGACCGGTTTTCCCGGTAATCCGTATTTGCAAGGTTGGTTTCACT; site = the 11-nt target
Procedure, shortened: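 Recombination efficiency draws on barcodes counted at recombinant junctions in a pooled E. coli screen of targets paired with IS621 bridge RNA target-binding loops. The counts were converted to counts per million, averaged and corrected against the chloramphenicol/ampicillin LB agar control, then reported as log10(CPM+1). Selection plates held chloramphenicol/ampicillin/kanamycin with 0.1 mM IPTG, with two replicates per condition.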
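Further: IS621 recombinase and bridge RNA in Escherichia coli cells.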

| Sequence | recombinant barcode read abundance (log10) |
| --- | --- |
| CACCCTTCTTGGGTTCTAACCTGTTGCTC (site TCTGGCCCTAG) | 0.0488 |
| CACCGAGCTTGGGTTCTAACCTGTTGCTA (site CACCGAGCTTA) | 0.528 |
| CACCGAGCTTGGGTTCTAACCTGTTGCTA (site TTGACGACTCG) | 0.177 |
| CACCTTCCTTGGGTTCTAACCTGTTGCAT (site CACATACCTAT) | 0.196 |
| CACCTTCCTTGGGTTCTAACCTGTTGCAT (site CACCTTCCTAT) | 1.77 |
| CACGACCCTTGGGTTCTAACCTGTTGCCT (site CAAGACCCTAG) | 0.0526 |
| CACGACCCTTGGGTTCTAACCTGTTGCCT (site CACGACCCTAG) | 2.05 |
| CACGACCCTTGGGTTCTAACCTGTTGCCT (site CAGGACCCTAG) | 0.0694 |
| CACGACCCTTGGGTTCTAACCTGTTGCCT (site CATGACCCTAG) | 0.16 |
| CACGAGGCTTGGGTTCTAACCTGTTGCCT (site CACGAGACTAG) | 0.707 |
| CACGAGGCTTGGGTTCTAACCTGTTGCCT (site CACGAGCCTAG) | 0.0831 |
| CACGAGGCTTGGGTTCTAACCTGTTGCCT (site CACGAGGCTAG) | 0.527 |
| CACGAGGCTTGGGTTCTAACCTGTTGCCT (site CACGAGTCTAG) | 0.322 |
| CACGATGCTTGGGTTCTAACCTGTTGCCT (site CAAGATGCTAG) | 0.437 |
| CACGATGCTTGGGTTCTAACCTGTTGCCT (site CACGATGCTAG) | 0.789 |
| CACGATGCTTGGGTTCTAACCTGTTGCCT (site CAGGATGCTAG) | 0.226 |
| CACGATGCTTGGGTTCTAACCTGTTGCCT (site CATGATGCTAG) | 0.351 |
| CACGCTTCTTGGGTTCTAACCTGTTGCTA (site CACGCGTCTCA) | 0.0477 |

| Sequence | recombinant barcode read abundance (log10) |
| --- | --- |
| CACGCTTCTTGGGTTCTAACCTGTTGCTA (site CACGCTTCTTA) | 1.01 |
| CACGGTCCTTGGGTTCTAACCTGTTGCCT (site CACGGTCCTAG) | 2.13 |
| CACGGTCCTTGGGTTCTAACCTGTTGCCT (site CTCGGTGCTAG) | 0.0233 |
| CACTCTCCTTGGGTTCTAACCTGTTGCAT (site CACTCTCCTAG) | 0.11 |
| CACTCTCCTTGGGTTCTAACCTGTTGCAT (site CACTCTCCTAT) | 0.728 |
| CACTGGTCTTGGGTTCTAACCTGTTGCCT (site CACTGATCTAG) | 0.532 |
| CACTGGTCTTGGGTTCTAACCTGTTGCCT (site CACTGCTCTAG) | 0.0756 |
| CACTGGTCTTGGGTTCTAACCTGTTGCCT (site CACTGGTCTAG) | 1.12 |
| CACTGGTCTTGGGTTCTAACCTGTTGCCT (site CACTGTTCTAG) | 0.0874 |
| CACTTATCTTGGGTTCTAACCTGTTGCCT (site CACTTAACTAG) | 0.149 |
| CACTTATCTTGGGTTCTAACCTGTTGCCT (site CACTTACCTAG) | 0.308 |
| CACTTATCTTGGGTTCTAACCTGTTGCCT (site CACTTAGCTAG) | 0.0751 |
| CACTTATCTTGGGTTCTAACCTGTTGCCT (site CACTTATCTAG) | 0.549 |
| CACTTGCCTTGGGTTCTAACCTGTTGCCT (site CACTTGACTAG) | 0.0347 |
| CACTTGCCTTGGGTTCTAACCTGTTGCCT (site CACTTGCCTAG) | 0.754 |
| CACTTGCCTTGGGTTCTAACCTGTTGCCT (site CACTTGGCTAG) | 0.0743 |
| CACTTGCCTTGGGTTCTAACCTGTTGCCT (site CACTTGTCTAG) | 0.614 |
| CACTTGGCTTGGGTTCTAACCTGTTGCAG (site CACTGGGCTCT) | 0.468 |
